According to patent US20260216176A1, “USE OF PCLX-001 OR PCLX-002 AS A RADIOSENSITIZER” (ACYLEX PHARMACEUTICALS INC., priority 2023, published 2026):

System: U251 glioblastoma cell line
Assay: Alamar Blue cell viability assay of radiosensitization (PCLX-001 pre-treatment plus radiation)
Type: cell-based, human
Protocol: Cancer cell lines of human origin were cultivated in the suitable culture medium enriched with 10% fetal bovine serum (FBS) and a 1% mixture of penicillin-streptomycin. These were incubated at a temperature of 37° C. in a 5% CO2 humid environment. The cells were sub-cultured upon reaching a confluence of 80% with the aid of 0.25% trypsin-EDTA [Freshney, R. I., 2010. Culture of animal cells: a manual of basic technique and specialized applications. John Wiley & Sons].
PCLX-001 was prepared at several concentrations for use as a radiosensitizing drug (serial dilutions from 1000 nM, including control 0 nM) in culture media. The cancer cells cultures were then treated with the aforementioned PCLX-001 concentrations and left for 24 h, 48 h, 72 h, and 96 h to allow for maximum pharmacodynamic effect. The cells were then plated into 96-well plates at 5000 cells per well and left to attach overnight while continuing to incubate in the drug/media cocktail.
Upon completion of the PCLX-001 incubation period, a single radiation dose was administered to the cells using a preclinical irradiator. The quantity of radiation was decided based on the results from prior optimization tests [Hall, E. J., Giaccia, A. J., 2012. Radiobiology for the radiologist. Lippincott Williams & Wilkins.]. The radiation doses included 0, 2, and 4 Gy, which corresponds to the most common clinical radiation dose fractions used.
72 hours post-radiation, an Alamar Blue Assay was conducted to determine cell viability. Alamar Blue dye was added to the media (10% v/v) and the plates were incubated at 37° C. for 4 hours. Using a fluorescence plate reader, fluorescence was measured at excitation/emission wavelengths of 560/590 nm. To quantify cell viability, the results were normalized to the data from untreated controls [Ahmed, S. A., et al., 1994].
The data were shown as mean±standard deviation (SD) gathered from three or more independent tests. A one-way ANOVA followed by a post hoc Tukey test was used for statistical analyses to find significant disparities between treatment groups. […]

Q: `Cc1c(N[S+](=O)(O)c2c(Cl)cc(-c3ccnc(N4CCNCC4)c3)cc2Cl)c(CC(C)C)nn1C` [PCLX-001] was tested. Which dose-enhancement factor (U251, below 25 nM) did it give?
A: below 1.2

Q: What about the “toxicity of the drug itself versus radiotherapy effect” value (above 150 nM) of the same compound?
A: toxicity of the drug itself exceeds the effect of typical radiotherapy dose-per-fraction's effect

Q: What about the “increase of radiotherapy's effectiveness” value (cancer cell line tested (human glioblastoma)) of the same compound?
A: about 80%
